Here are results for seven compounds from patent US4291042A, “Antidepressant piperidine derivatives” (John Wyeth & Brother Limited, priority 1979, dated 1981).

Assay [1] concerns neuronal uptake of noradrenaline into slices of cerebral cortex. The experiment in a line: inhibition of noradrenaline uptake in brain slices. The assay is classed as biochemical, rat. The settings on record: for inhibition of noradrenaline uptake (in words): rat brain slices; for Potency Ratio (imipramine = 1.0) Noradrenaline: rat cerebral cortex slices, H^3 noradrenaline. On the procedure: (§1) The compounds of formula I were tested for the ability to inhibit noradrenaline and 5-hydroxytryptamine uptake in brain slices in the following standard test:
Concentration-response curves are obtained both for the test compound and for the standard agent, imipramine. The potency of each test compound is expressed in proportion to that of imipramine. Thus, [formula]

The subject of assay [2] is uptake of 5-hydroxytryptamine. The assay can be described thus: inhibition of 5-hydroxytryptamine uptake in brain slices. The settings on record: for inhibition of 5-HT (hydroxytryptamine) uptake (in words): rat brain slices; for Potency Ratio (imipramine = 1.0) 5-hydroxytryptamine: rat cerebral cortex slices, H^3 5-hydroxytryptamine. Also noted: key: Compounds not achieving 50% inhibition are considered inactive. The assay is classed as biochemical, rat. On the procedure:
as §1
The effects of test compounds on the neuronal uptake of noradrenaline into slices of cerebral cortex prepared from rat brain is determined according to the method described by Snyder, Green and Hendley, Kinetics of H^3 --norepinephrine accumulation into slices from different regions of the rat brain (J.Pharm. exp. Therap. 164: 90-102) (1968). The effects of test compounds on the uptake of 5-hydroxytryptamine is obtained in a similar manner except that H^3 5-hydroxytryptamine is used in place of H^3 noradrenaline. Concentration-response curves are obtained both for the test compound and for the standard agent, imipramine. The potency of each test compound is expressed in proportion to that of imipramine. Thus, [formula]

For assay [3], the system named is p-chloroamphetamine induced hyperactivity. The assay can be described thus: inhibition of p-chloroamphetamine (pCA) induced hyperactivity. The settings on record: female mice; 50 mg/kg po; 20 mg/kg pCA ip 30 min later; activity 10-30 min post pCA. The assay is classed as in vivo. The procedure: Compounds of formula I were also tested for their ability to inhibit p-chloroamphetamine induced hyperactivity. The following procedure was used:
Three groups of 4 female mice (20-24 g) received the test compounds (50 mg/kg po) and a fourth group the requisite volume of vehicle. Thirty minutes later all the animals are given 20 mg/kg p-chloroamphetamine (pCA) ip. The grouped mice are placed immediately in square plastic cages in activity monitors and their motor activity recorded over the period 10-30 minutes post pCA. This procedure is repeated three more times so that four groups of mice are used per treatment and each activity monitor is used with all treatments in turn. The inhibition of pCA induced hyperactivity is calculated thus: [formula] where C=mean activity of control groups 10-30 minutes post pCA.
T=mean activity of treated groups 10-30 minutes post pCA.
This test is used as an in vivo screen for detection of 5-hydroxytryptamineuptake inhibitors.
Compounds giving >50% inhibition are considered of special interest. In such a test the following compounds were particularly active: […]

For `O=C1c2ccccc2C(=O)N1C1CCN(Cc2c[nH]c3ccccc23)CC1` [I, 2-(1-[Indol-3-ylmethyl]piperid-4-yl)-1H-isoindole-1,3-(2H)-dione], in assay [1], the “inhibition of noradrenaline uptake (in words)” value was “very weak inhibitors” and the “Potency Ratio (imipramine = 1.0) Noradrenaline” value is given as 0.01. Also, in assay [2], the “inhibition of 5-HT (hydroxytryptamine) uptake (in words)” value (from here on “inhibition of 5-HT”) is “potent inhibitors” and the “Potency Ratio (imipramine = 1.0) 5-hydroxytryptamine” value is listed as 9.5. Further, in assay [3], the “% Inhibition of pCA induced hyperactivity” value (“% Inhibition” below) is listed as 53%.

In the case of `O=C1c2ccc(Cl)cc2C(=O)N1C1CCN(Cc2c[nH]c3ccccc23)CC1` [Example 16, 5-Chloro-2-[1-(indol-3-ylmethyl)piperid-4-yl]-1H-isoindole-1,3-(2H)-dione], the “% Inhibition” value in assay [3] is given as 63%.

`Nc1ccc2c(c1)C(=O)N(C1CCN(CCc3c[nH]c4ccccc34)CC1)C2=O` [III, 5-amino-2-(1-[2-(indol-3-yl)ethyl]piperid-4-yl)-1H-isoindole-1,3-(2H)-dione]: in assay [1], the “inhibition of noradrenaline uptake (in words)” value is recorded as “very weak inhibitors” and the “Potency Ratio (imipramine = 1.0) Noradrenaline” value was “inactive”. Besides, in assay [2], the “inhibition of 5-HT” value is recorded as “potent inhibitors” and the “Potency Ratio (imipramine = 1.0) 5-hydroxytryptamine” value worked out at 11.0.

Consider `O=C1c2ccc(Cl)cc2C(=O)N1C1CCN(CCc2c[nH]c3ccccc23)CC1` [Example 8, 5-Chloro-2-(1-[2-(indol-3-yl)ethyl]piperid-4-yl)-1H-isoindole-1,3-(2H)-dione], for which, in assay [3], the “% Inhibition” value is 94%.

With `O=C1c2ccccc2C(=O)N1C1CCN(Cc2ccccc2)CC1` [B, 2-(1-benzylpiperid-4-yl)-1H-isoindol-1,3-(2H)-dione, reference compound], in assay [1], the “inhibition of noradrenaline uptake (in words)” value was “inactive” and the “Potency Ratio (imipramine = 1.0) Noradrenaline” value is “inactive”. In assay [2], the “inhibition of 5-HT” value is “inactive” and the “Potency Ratio (imipramine = 1.0) 5-hydroxytryptamine” value is “inactive”.

`O=C1c2ccccc2C(=O)N1C1CCN(CCc2c[nH]c3ccccc23)CC1` [II, 2-(1-[2-(Indol-3-yl)ethyl]piperid-4-yl)-1H-isoindol-1,3-(2H)-dione]: in assay [1], the “inhibition of noradrenaline uptake (in words)” value was “very weak inhibitors” and the “Potency Ratio (imipramine = 1.0) Noradrenaline” value is on record as 0.06. In assay [2], the “inhibition of 5-HT” value is “potent inhibitors” and the “Potency Ratio (imipramine = 1.0) 5-hydroxytryptamine” value was 8.3.

In the case of `O=C1c2ccccc2S(=O)(=O)N1C1CCN(Cc2c[nH]c3ccccc23)CC1` [Example 3, 2-(1-[Indol-3-ylmethyl]piperid-4-yl)-1,2-benzisothiazolin-3-one-1,1-dioxide], the “% Inhibition” value in assay [3] stood at 56%.
